Source: patent US12692251B2, “Pralsetinib pharmaceutical compositions” (Rigel Pharmaceuticals, Inc., priority 2020, dated 2026)

Columns and labels:
[1] = Dynamic Vapor Sorption (DVS); type: physicochemical; conditions: for total mass change by DVS: between 2% and 95% relative humidity
Protocol: Dynamic Vapor Sorption (DVS) was done using a DVS Intrinsic 1. The sample is loaded into a sample pan and suspended from a microbalance. A typical sample mass for DVS measurement is 25 mg. Nitrogen gas bubbled through distilled water provides the desired relative humidity. A typical measurement comprises the steps: • 1—Equilibrate at 50% RH • 2—50% to 2%. (50%, 40%, 30%, 20%, 10% and 2%) • a. Hold minimum of 5 mins and maximum of 60 minutes at each humidity. The pass criteria is less than 0.002% change • 3 —2% to 95% (2%, 10%, 20%, 30%, 40%, 50%, 60%, 70%, 80%, 90%, 95%) • a. Hold minimum of 5 mins and maximum of 60 minutes at each humidity. The pass criteria is less than 0.002% change • 4—95% to 2% (95%, 80%, 70%, 60%, 50%, 40%, 30%, 20%, 10%, 2%) • a. Hold minimum of 5 mins and maximum of 60 minutes at each humidity. The pass criteria is less than 0.002% change • 5—2% to 50% (2%, 10%, 20%, 30%, 40%, 50%) • a. Hold minimum of 5 mins and maximum of 60 minutes at each humidity. The pass criteria is less than 0.002% change

[2] = Solid form stability to humidity and drying; type: physicochemical; conditions: for stability to drying: 50° C. (under vacuum) where stated
Protocol: In one aspect, the present disclosure provides a process for preparing crystalline Form A, Form B or Form C. In a particular aspect, Form A can be obtained by slurrying in alcohols, acetone, and acetonitrile or Form A was prepared by evaporative crystallization in multiple solvents and cooling crystallization in isopropanol and 1-propanol. Form A can also be produced by recrystallization in acetone:water. Form C can be obtained by recrystallizing Compound (I) in various water containing solvent systems (acetone:water, methanol:water, isopropanol:water, dimethylacetamide:water, tetrahydrofuran:water). Form C was stable drying at 50° C. under vacuum, and converted to Form B (anhydrous) upon heating to 150° C. […] Form C was not as hygroscopic as Form A during the dynamic vapor sorption measurements, gaining only 1.44% water.

[3] = Competitive slurry experiments; type: physicochemical
[4] = Solubility of pralsetinib and its solid forms; type: physicochemical; conditions: for solubility in simulated gastric fluid: simulated gastric fluid (possibly due to conversion to HCl salt)
[5] = system: NSCLC and thyroid cancer xenografts driven by various RET mutations and fusions; conditions: in vivo; cited from earlier work
[6] = Accelerated stability for 4 weeks at 40° C./75% RH; type: physicochemical; conditions: Compositions 1-3
Protocol: The manufacturing process for the Compositions 1-3 are as follows: • 1) Intragranular components were blended in a suitably sized contained using the Turbula blender for 3 minutes at 23 rpm • 2) Intragranular blend was dry granulated by densification using a Riva minipress fitted with 22×9 mm caplet tooling • 3) Resultant material was milled using a Comil 193 fitted with 991 μm screen 4) Granule bulk density was determined and if not within 0.55-0.6 g/mL, densification and milling repeated until the desired bulk density was achieved • 5) Extragranular components were blend with the granules in a Turbula blender for 2 minutes at 23 rpm • 6) Final blend was hand filled in to Size 0 HPMC Capsules (Vcaps® Plus) • 7) Capsules were packed into 60 mL HDPE bottles with 4 g desiccant cap at a count of 30 capsules per bottle • 8) Packed product was placed on accelerated stability for 4 weeks at 40° C./75% RH

VEGFR2 = conditions: in vivo; cited from earlier work

CO[C@]1(C(=O)N[C@@H](C)c2ccc(-n3cc(F)cn3)nc2)CC[C@H](c2nc(C)cc(Nc3cc(C)[nH]n3)n2)CC1 [Form A, (cis)-N—((S)-1-(6-(4-fluoro-1H-pyrazol-1-yl)pyridin-3-yl)ethyl)-1-methoxy-4-(4 methyl-6-(5-methyl-1H-pyrazol-3-ylamino)pyrimidin-2-yl)cyclohexanecarboxamide]
reversible mass change by DVS ([1]; between 2-95% relative humidity): about 10% | conversion on prolonged humidity exposure ([2]; prolonged humidity exposure): did not convert to Form C | form conversion in competitive slurry, methanol:water ([3]; methanol:water at high ratios of water to methanol and lower temperatures): converted to Form C | solubility in simulated gastric fluid [4]: high solubility | solubility in simulated intestinal fluid [4]: low solubility | solubility in water [4]: low solubility

CO[C@]1(C(=O)N[C@@H](C)c2ccc(-n3cc(F)cn3)nc2)CC[C@H](c2nc(C)cc(Nc3cc(C)[nH]n3)n2)CC1 [pralsetinib, (cis)-N—((S)-1-(6-(4-fluoro-1H-pyrazol-1-yl)pyridin-3-yl)ethyl)-1-methoxy-4-(4 methyl-6-(5-methyl-1H-pyrazol-3-ylamino)pyrimidin-2-yl)cyclohexanecarboxamide]
growth of xenografts [5]: potently inhibits growth | physical form by XRPD after storage [6]: remains as an amorphous solid dispersion | aqueous solubility [4]: low aqueous solubility | solubility in acidic pH ([4]; acidic pH (pH 1.2 medium)): relatively high solubility | inhibition of VEGFR2 (VEGFR2): without inhibiting

CO[C@]1(C(=O)N[C@@H](C)c2ccc(-n3cc(F)cn3)nc2)CC[C@H](c2nc(C)cc(Nc3cc(C)[nH]n3)n2)CC1.Cl [Form II]
stability to drying [2]: converted to Form III

COC1(C(=O)NC(C)c2ccc(-n3cc(F)cn3)nc2)CCC(c2nc(C)cc(Nc3cc(C)[nH]n3)n2)CC1.Cl (centres unmarked) [Form III]
behaviour at elevated humidity / humidification [2]: stable to humidification

CO[C@]1(C(=O)N[C@@H](C)c2ccc(-n3cc(F)cn3)nc2)CC[C@H](c2nc(C)cc(Nc3cc(C)[nH]n3)n2)CC1 [Form C, (cis)-N—((S)-1-(6-(4-fluoro-1H-pyrazol-1-yl)pyridin-3-yl)ethyl)-1-methoxy-4-(4 methyl-6-(5-methyl-1H-pyrazol-3-ylamino)pyrimidin-2-yl)cyclohexanecarboxamide]
water gained during dynamic vapor sorption measurements [1]: 1.44% | total mass change by DVS [1]: 1.4 wt. % | stability by X-ray powder diffraction during humidity testing ([2]; 75% relative humidity and 40° C. for one week, and cycling down to 2% relative humidity by DVS): remained stable | form conversion in competitive slurry, acetone and isopropanol ([3]; acetone and isopropanol): converted to Form A | solubility in simulated gastric fluid [4]: high solubility | solubility in simulated intestinal fluid [4]: lower solubility than Form A | solubility in water [4]: lower solubility than Form A

CO[C@]1(C(=O)N[C@@H](C)c2ccc(-n3cc(F)cn3)nc2)CC[C@H](c2nc(C)cc(Nc3cc(C)[nH]n3)n2)CC1 [Form B, (cis)-N—((S)-1-(6-(4-fluoro-1H-pyrazol-1-yl)pyridin-3-yl)ethyl)-1-methoxy-4-(4 methyl-6-(5-methyl-1H-pyrazol-3-ylamino)pyrimidin-2-yl)cyclohexanecarboxamide]
total mass change by DVS [1]: 1.4 wt. %

COC1(C(=O)NC(C)c2ccc(-n3cc(F)cn3)nc2)CCC(c2nc(C)cc(Nc3cc(C)[nH]n3)n2)CC1.Cl (centres unmarked) [Form I]
stability to drying [2]: stable to drying | behaviour at elevated humidity / humidification [2]: deliquesced
